{
  "source": "patent US20190380964A1",
  "about": "“METHODS AND COMPOSITIONS FOR MAKING AND USING NANOTHERAPEUTIC DRUG DELIVERY VEHICLES” (GEORGE MASON UNIVERSITY, priority 2018, published 2019)",
  "key": {"[1]": {"test_system": "MDA-MB-231 cells", "details": "concentration at which DXR liposomal carriers were introduced; read-out: EC-50 of DXR; cited from earlier work"}, "[2]": {"test_system": "MDA-MB-231 cells", "assay": "WST-1 proliferation / viability of MDA-MB-231 cells exposed to targeted DXR liposomes", "format": "cell-based", "details": "8 or 24 hours exposure, evaluated over 3 days", "protocol": "In an alternate embodiment, MDA-MB-231 cells were grown in DMEM containing 10% FBS and 1× Penicillin-Streptomycin solution. The cells were cultured at 70% confluence and plated in a 96 well plate at a density of 5×10^4 cells/well. The cells were incubated undisturbed for two days prior to any experimentation. Liposomal suspensions were UV sterilized prior to introduction to cell cultures. On the second day, the liposomal carriers containing DXR were introduced to the cultures at the EC-50 of DXR (0.01 μM21). Proliferating cells were quantified and normalized by the control using WST-1 proliferation assay.\nLiposomes were incubated with DXR (17.2 mM) and DSPE-PEG-MAL (0.1 mol %) for 1 hour. The suspension was then purified using spin columns and incubated overnight with CD44 antibodies as described in the methods. Targeted liposomes were introduced to cultures of MDA-MB-231 cells and allowed to interact for 8 hours or 24 hours prior to being washed. […] Viability was analyzed over 72 hours using WST-1 as an indicator of proliferation and normalized to a media only control (e.g., as is illustrated in FIG. 8D)."}},
  "data": [
    {"molecule": "COc1cccc2c1C(=O)c1c(O)c3c(c(O)c1C2=O)C[C@@](O)(C(=O)CO)C[C@@H]3O[C@H]1C[C@H](N)[C@H](O)[C@H](C)O1", "note": "[DXR, doxorubicin]", "values": [
      {"measurement": "EC50", "setting": "[1]", "result": 10, "unit": "nM"},
      {"measurement": "cancer cell viability (result in words, FIG. 8D)", "setting": "[2]", "result": "demonstrated efficacy in reducing cancer cell viability"}
    ]}
  ]
}
